According to publication PMC3889466 (Journal of medicinal chemistry, 2013):

Key:
[1] = biological target: T1, A/M2 S31N (Influenza A virus, UniProt P0DOF5, S31N); details: conductance assay in M2-expressing oocytes; cited from earlier work
[2] = biological target: A/M2 V27A (Influenza A virus, UniProt P0DOF5, V27A); details: cited from earlier work
[3] = biological target: T1, A/M2 S31N; assay type: cell-based, influenza A/Udorn/72; details: pH 5.5

Row | Compound | Activity against the S31N mutant form of A/M2 (in words) [1] | Activity against the V27A mutant form of A/M2 (in words) [2] | A/M2 S31N Inhibition by 100 μM for 2 min (%) [3] [%]
1 | CC12CC3CC1(C)CC3(N)C2 [Compound 6] | inactive | inactive | –
2 | CC12CC3CC1(C)CC3(CN)C2 [Compound 7] | inactive | inactive | –
3 | NC12C3CCC4C3C3C(CCC31)C42 [Compound 8] | – | did not show any activity | –
4 | NCC12C3CCC4C3C3C(CCC31)C42 [Compound 9] | – | did not show any activity | –
5 | C1=CC2C3C4C5C=CC4C24CNCC54C13 [Compound 10] | – | marginal activity | –
6 | C1C2C1C1C3C4C5C6CC6C4C14CNCC54C23 (stereo not drawn) [Compound 11] | – | marginal activity | –
7 | CC12CC34CNCC3(C1)CC2(C)C4.Cl [Compound 14a, 7,8-Dimethyl-3-azatetracyclo[5.2.1.1^5,8.0^1,5]undecane hydrochloride] | – | – | 0
